Laboratory results reported in patent US11147792B2, “Inhibitors of microbially induced amyloid” (Axial Therapeutics, Inc, priority 2017, dated 2021).
“Also recorded” adds a separate entry of the source.

Experiments:
[1] = molecular target: T1, α-synuclein seeded by E. coli CsgA (Homo sapiens, UniProt P37840); test: In vitro Thioflavin T assay of CsgA-seeded α-synuclein aggregation; assay type: biochemical; conditions: compounds at 50 μM; 2 μM CsgA, 50 μM α-synuclein; ThT fluorescence at 40 hours; read-out: Inhibition of Aggregation CsgA-seeded αSyn
T1 construct: made in house; host or cells: E. coli NEB 3016 slyD::kan (CsgA, pET11d); E. coli (α-synuclein)
Procedure: In Vitro Thioflavin T Assay to Determine the Effects of Compounds on CsgA-Seeded α-Synuclein Aggregation.
To induce over-expression of CsgA, 0.5 mM IPTG was added to cultures with an optical density at 600 nm (OD600) of 0.8-1, and induced cells were cultured at 37° C. for 1 hour prior to harvest via centrifugation. […] Buffers with imidazole were freshly prepared prior to the protein purification. Purified CsgA was passed through a 30 kDa molecular weight cut-off filter and through a desalting column. All steps of the CsgA purification in the absence of guanidine hydrochloride were conducted in rapid succession with as little delay as possible. […] The ammonium sulfate pellet was washed with an equal volume of 100 mM ammonium acetate in ethanol, pelleted via centrifugation, washed twice with ethanol, dried overnight, resuspended in 10 mM Tris pH 7.4, and passed through a 50 kDa cut-off column. The assay was conducted in 96-well black microplates with a single glass 2 mm bead per well, 40 μM ThioflavinT, 1% DMSO, 2 μM CsgA, 50 μM α-synuclein, 100 mM sodium chloride, 9.3 mM potassium phosphate pH 7.3, and compounds at 50 μM. […] The effect of compounds on CsgA-seeded α-synuclein aggregation in the assay was determined with data from 40 hours, following the plateau of the fluorescent signal in the untreated (no compound) control wells containing CsgA and α-synuclein. Fluorescence values for each compound with CsgA and α-synuclein were first adjusted by subtracting the average fluorescence of the compound in the absence of CsgA and α-synuclein.

[2] = system: Thy1-αSyn mice (ASO) mono-colonized with WT E. coli; test: Motor function of germ-free Thy1-αSyn (ASO) mice mono-colonized with WT E. coli, EGCG in drinking water; assay type: in vivo, mouse; conditions: EGCG ad lib in drinking water vs vehicle
Procedure: Evidence has linked unregulated α-synuclein expression in humans to a higher risk of PD, providing an epidemiological foundation for the Thy1-α-synuclein mouse model. Defects in coordinated motor tasks become evident at 12 weeks of age. Motor function is measured via four tests: beam traversal, pole descent, nasal adhesive removal, and hind limb clasping reflexes, as previously validated in this model (described in Fleming et al., J. Neurosci. 24, 9434-9440 (2004), and Sampson et al., Cell 167(6):1469-1480 (2016) the content of which are hereby expressly incorporated by reference in its entirety). […] Removal of an adhesive from the nasal bridge, a test of fine motor control, is also impaired in SPF-ASO mice compared to SPF-WT mice, as is the hind limb clasping reflex, a measure of striatal dysfunction.
(§1) Germ-free Thy1-αSyn mice (ASO) mono-colonized with WT E. coli at 5-6 weeks of age, and given water alone (Vehicle: Veh) or treated with EGCG ad lib in drinking water (+EGCG). RNA was extracted from fecal pellets and csgA expression quantified by qRT-PCR, relative to rrsA. FIG. 1C is a graph showing fold-change in csgA expression. Motor function was assessed at 15-16 weeks of age by quantifying beam traversal time (FIG. 1D), pole descent time (FIG. 1E), nasal adhesive removal time (FIG. 1F), hindlimb clasping score (FIG. 1G), and wire hang tests (FIG. 1H). Time to cross, time to descent, time to remove, and hindlimb score were lower in the EGCG-treated mice, while time to fall was higher in the EGCG-treated mice compared to vehicle treated control.
Inhibition of functional amyloid formation was studied. Germ-free Thy1-αSyn mice (ASO) were monocolonized with wild-type E. coli and treated with water alone (Vehicle, Veh) or given EGCG ad lib in drinking water (+EGCG). Motor function was assessed at 10, 12, and 15 weeks of age by quantifying beam traversal time (FIG. 5A), pole descent time (FIG. 5B), nasal adhesive removal time (FIG. 5C), hindlimb clasping score (FIG. 5D), and wire hang tests (FIG. 5E). FIG. 5F depicts principal component analysis of compiled motor scores from FIGS. 5A-D. Thin sections of brain were stained for Iba1 (microglia) and morphological characteristics quantified of microglia resident in the striatum (FIGS. 5G-H) and substantia nigra (FIGS. 5I-J). N=10-11 (FIGS. 5A-F), n=3 (FIGS. 5G-J) (averaged from 5-7 cells for branching). Bars represent the mean and standard error. Time courses analyzed by two-way ANOVA, with Sidak post-hoc test for between group comparisons indicated above individual time points, and brackets indicating significance between treatments. Data in (FIGS. 5G-J) analyzed by two-tailed t-test. *p≤0.05; **p≤0.01; ****p≤0.0001.

[3] = system: αSyn aggregates in brain of Thy1-αSyn mice (ASO); test: Brain αSyn aggregates in germ-free ASO mice mono-colonized with WT E. coli, EGCG in drinking water; assay type: in vivo, mouse; conditions: EGCG-treated vs vehicle
Procedure: as §1, with “control. […]” for “control.”
FIGS. 1L-M show quantification of insoluble αSyn fibrils in the striatum (FIG. 1L) and ventral midbrain (FIG. 1M) by dot blot assay. Thin sections of brain were stained for Iba1 (microglia), 3D cellular reconstructions generated, and morphological characteristics quantified from microglia resident in the striatum (FIG. 1N) and substantia and nigra (FIG. 1O). n=3 (FIGS. 1A, 1B, 1N, 1O), n=8 (FIG. 1C), n=10-11 (FIGS. 1D-I), n=4 (FIGS. 1L-M). […] Data analyzed by one-way ANOVA with Tukey post-hoc test for FIG. 1A, two-tailed Mann-Whitney for FIGs. […]

Structure (SMILES): O=C(O[C@@H]1Cc2c(O)cc(O)cc2O[C@@H]1c1cc(O)c(O)c(O)c1)c1cc(O)c(O)c(O)c1 [EGCG, epigallocatechin gallate]
- inhibition at 50 µM [1]: 77%
- progressive motor deficits exacerbated by E. coli (motor performance) [2]: successfully dampens progressive motor deficits
- beam traversal time (time to cross) ([2]; 15-16 weeks of age): lower
- hindlimb clasping score ([2]; 15-16 weeks of age): lower
- nasal adhesive removal time (time to remove) ([2]; 15-16 weeks of age): lower
- pole descent time (time to descent) ([2]; 15-16 weeks of age): lower
- wire hang test (time to fall) ([2]; 15-16 weeks of age): higher
- αSyn aggregation in striatum and midbrain [3]: preventing αSyn aggregation in both the striatum and midbrain
- Proteinase K resistant αSyn aggregates in the substantia nigra ([3]; immunofluorescence microscopy): lower; also recorded: Fewer
